Test results from patent US20260176284A1, “Compounds with Anti-KRAS Mutated Tumor Activity” (Trasveda Ltd., priority 2022, published 2026).

system: KRAS G12D mutated AGS human gastric adenocarcinoma cells; experiment: Proliferation inhibition of KRAS G12D mutant AGS cells, another experiment with similar protocol (includes MRTX1133); assay type: cell-based; conditions: Homo sapiens
Procedure: In another experiment, using a protocol similar to the one described above, the inhibitory activity of some representative compounds of the present invention against KRAS G12D mutated AGS human gastric adenocarcinoma cells was determined.
The synthesis of compound MRTX1133 was performed according to the method described in J. Med. Chem. 2022, 65, 4, 3123-3133.

Structure (SMILES)	IC50
C#Cc1c(F)ccc2cc(O)cc(-c3c(F)cc4c(N5CC6CCC(C5)N6)nc(OC[C@]5(C)CN(C)CC[C@@H]5CF)nc4c3F)c12 (atropisomer, axis not shown; (Ra)) [Example 45-3]	5 nM
C#Cc1c(F)ccc2cc(O)cc(-c3ncc4c(N5CC6CCC(C5)N6)nc(OC[C@]5(C)CN(C)CC[C@H]5F)nc4c3F)c12 [Example 67-3]	17 nM
CN1CC/C(=C\F)[C@](C)(COc2nc(N3C[C@H]4CC[C@@H](C3)N4)c3cc(C(F)(F)F)c(-c4cccc5sc(N)c(C#N)c45)c(F)c3n2)C1 [Example 318, 4-(4-((1R,5S)-3,8-diazabicyclo[3.2.1]octan-3-yl)-8-fluoro-2-(((S,E)-4-(fluoromethylene)-1,3-dimethylpiperidin-3-yl)methoxy)-6-(trifluoromethyl)quinazolin-7-yl)-2-aminobenzo[b]thiophene-3-carbonitrile]	28 nM
C#Cc1c(F)ccc2cc(O)cc(-c3c(F)cc4c(N5C[C@H]6CC[C@@H](C5)N6)nc(OC[C@]5(C)CN(CC)CC/C5=C\F)nc4c3F)c12 [Example 79, 4-(4-((1R,5S)-3,8-diazabicyclo[3.2.1]octan-3-yl)-2-(((S,E)-1-ethyl-4-(fluoromethylene)-3-methylpiperidin-3-yl)methoxy)-6,8-difluoroquinazoline-7-yl)-5-ethynyl-6-fluoronaphthalene-2-ol]	4 nM
C#Cc1c(F)ccc2cc(O)cc(-c3nc(OC)c4c(N5C[C@H]6CC[C@@H](C5)N6)nc(OC[C@]5(C)CN(C)CC[C@H]5F)nc4c3F)c12 [Example 263, 4-(4-((1R,5S)-3,8-diazabicyclo[3.2.1]octan-3-yl)-8-fluoro-2-(((3S,4R)-4-fluoro-1,3-dimethylpiperidin-3-yl)methoxy)-5-methoxypyrido[4,3-d]pyrimidin-7-yl)-5-ethynyl-6-fluoronaphthalen-2-ol]	12 nM
CN1CCC(F)(F)[C@](C)(COc2nc(N3CC4CCC(C3)N4)c3cc(F)c(-c4cc(O)cc(Cl)c4C4CC4)c(F)c3n2)C1 [Example 29-1A, 3-(4-((1R,5S)-3,8-diazabicyclo[3.2.1]octane-3-yl)-2-(((S)-4,4-difluoro-1,3-dimethylpiperidin-3-yl)methoxy)-6,8-difluoroquinolin-7-yl)-5-chloro-4-cyclopropylphenol·diformate]	630 nM
[2H]C([2H])([2H])[C@@]1(COc2nc(N3CC4CCC(C3)N4)c3cnc(-c4cc(O)cc5ccc(F)c(C#C)c45)c(F)c3n2)CN(C)CC[C@@H]1C(F)F (single isomer, unassigned) [Example 426, (Sa) or (Ra)-4-(4-((1R,5S)-3,8-diazabicyclo[3.2.1]octan-3-yl)-2-(((3S,4S)-4-(difluoromethyl)-1-methyl-3-(methyl-d3)piperidin-3-yl)methoxy)-8-fluoropyrido[4,3-d]pyrimidin-7-yl)-5-ethynyl-6-fluoronaphthalen-2-ol]	7 nM
CN1CC/C(=C\F)[C@](C)(COc2nc(N3CC4CCC(C3)N4)c3cc(C(F)(F)F)c(-c4cccc5sc(N)c(C#N)c45)c(F)c3n2)C1 (single isomer, unassigned) [Example 318-1]	9 nM
C#Cc1c(F)ccc2cc(O)cc(-c3c(F)cc4c(N5CC6CCC(C5)N6)nc(OC[C@]5(C)CN(CC)CC[C@H]5F)nc4c3F)c12 (atropisomer, axis not shown; (Ra)) [Example 50-3, (Ra)-4-(4-((1R,5S)-3,8-diazabicyclo[3.2.1]octan-3-yl)-2-(((35,4R)-1-ethyl-4-fluoro-3-methylpiperi-din-3-yl)methoxy)-6,8-difluoroquinazolin-7-yl)-5-ethynyl-6-fluoronaph-thalen-2-ol]	7 nM
C#Cc1c(F)ccc2cc(O)cc(-c3c(F)cc4c(N5CC6CCC(C5)N6)nc(OC[C@]5(C)CN(CC)CC[C@@H]5F)nc4c3F)c12 (atropisomer, axis not shown; (Ra)) [Example 50-1, (Ra)-4-(4-((1R,5S)-3,8-diazabicyclo[3.2.1]octan-3-yl)-2-(((35,4S)-1-ethyl-4-fluoro-3-methylpiper-idin-3-yl)methoxy)-6,8-difluoroquinazolin-7-yl)-5-ethynyl-6-fluoronaph-thalen-2-ol]	15 nM
C#Cc1c(F)ccc2cc(O)cc(-c3nc(OC)c4c(N5C[C@H]6CC[C@@H](C5)N6)nc(OC[C@]5(C)CN(C)CCC5=C)nc4c3F)c12 [Example 258, 4-(4-((1R,5S)-3,8-diazabicyclo[3.2.1]octan-3-yl)-2-(((S)-1,3-dimethyl-4-methylenepiperidin-3-yl)methoxy)-8-fluoro-5-methoxypyrido[4,3-d]pyrimidin-7-yl)-5-ethynyl-6-fluoronaphthalen-2-ol]	8 nM
CN1CC/C(=C\F)[C@](C)(COc2nc(N3CC4CCC(C3)N4)c3cc(F)c(-c4cccc5sc(N)c(C#N)c45)c(F)c3n2)C1 [Example 194]	97 nM
CN1CC/C(=C\F)[C@](C)(COc2nc(N3C[C@H]4CC[C@@H](C3)N4)c3cc(C(F)(F)F)c(-c4c(F)ccc5sc(N)c(C#N)c45)c(F)c3n2)C1 (single isomer, unassigned) [Example 362-1]	5 nM
C#Cc1c(F)ccc2cc(O)cc(-c3c(F)cc4c(N5CC6CCC(C5)N6)nc(OC[C@]5(C)CN(C6CC6)CCC5(F)F)nc4c3F)c12 (atropisomer, axis not shown; (Ra)) [Example 49, (Ra)-4-(4-((1R,5S)-3,8-diazabicyclo[3.2.1]octan-3-yl)-2-(((S)-1-cycloprop-yl-4,4-difluoro-3-methylpiperi-din-3-yl)methoxy)-6,8-difluoroquinazolin-7-yl)-5-ethynyl-6-fluoronaph-thalen-2-ol]	386 nM
C#Cc1c(F)ccc2cc(O)cc(-c3ncc4c(N5CC6CCC(C5)N6)nc(OC[C@]5(CC)CN(C)CC[C@@H]5C(F)F)nc4c3F)c12 (racemic) [Example 396, (±)4-(4-((1R,5S)-3,8-diazabicyclo[3.2.1]octan-3-yl)-2-(((3S,4S)-4-(difluoromethyl)-3-ethyl-1-methylpiperidin-3-yl)methoxy)-8-fluoropyrido[4,3-A]pyrimidin-7-yl)-5-ethynyl-6-fluoronaphthalen-2-ol]	11 nM
C#Cc1c(F)ccc2cc(O)cc(-c3c(F)cc4c(N5CC6CCC(C5)N6)nc(OC[C@]5(C)CN(CC)CC[C@@H]5C)nc4c3F)c12 (atropisomer, axis not shown; (Ra)) [Example 52-1, (Ra)-4-(4-((1R,5S)-3,8-diazabicyclo[3.2.1]octan-3-yl)-2-(((35,4S)-1-ethyl-3,4-dimethyl-piperidin-3-yl)methoxy)-6,8-difluoroquinazolin-7-yl)-5-ethynyl-6-fluoro-naphthalen-2-ol]	10 nM
C#Cc1c(F)ccc2cc(O)cc(-c3c(F)cc4c(N5CC6CCC(C5)N6)nc(OC[C@]5(C)CN(C)CCC5=C)nc4c3F)c12 (atropisomer, axis not shown; (Ra)) [Example 40, (Ra)-4-(4-((1R,5S)-3,8-diazabicyclo[3.2.1]octan-3-yl)-2-(((S)-1,3-dimethyl-4-methylenepiperidin-3-yl)methoxy)-6,8-difluoroquinazolin-7-yl)-5-ethynyl-6-fluoronaphthalen-2-ol]	9 nM
[2H]C([2H])([2H])N1CC[C@H](C(F)F)[C@](C)(C([2H])([2H])Oc2nc(N3CC4CCC(C3)N4)c3cc(Cl)c(-c4cccc5sc(N)c(C#N)c45)c(F)c3n2)C1 (single isomer, unassigned) [Example 315-2]	13 nM
C#Cc1c(F)ccc2cc(O)cc(-c3c(F)cc4c(N5C[C@H]6CC[C@@H](C5)N6)nc(OC[C@]5(C)CN(C)CCC56CC6)nc4c3F)c12 [Example 88, 4-(4-((1R,5S)-3,8-diazabicyclo[3.2.1]octan-3-yl)-2-(((S)-4,6-dimethyl-6-azaspiro[2.5]octan-4-yl)methoxy)-6,8-difluoroquinazolin-7-yl)-5-ethynyl-6-fluoronaphthalen-2-ol]	17 nM
C#Cc1c(F)ccc2cc(O)cc(-c3c(F)cc4c(N5CC6CCC(C5)N6)nc(OC[C@]5(C)CN(CC)CCC5=C)nc4c3F)c12 (atropisomer, axis not shown; (Ra)) [Example 63, (Ra)-4-(4-((1R,5S)-3,8-diazabicyclo[3.2.1]octan-3-yl)-2-(((S)-1-ethyl-3-methyl-4-methylenepiperi-din-3-yl)methoxy)-6,8-difluoroquinazolin-7-yl)-5-ethynyl-6-fluoronaph-thalen-2-ol]	11 nM
CN1CC[C@H](C(F)F)[C@](C)(COc2nc(N3C[C@H]4CC[C@@H](C3)N4)c3cc(C(F)(F)F)c(-c4c(F)ccc5sc(N)c(C#N)c45)c(F)c3n2)C1 (single isomer, unassigned) [Example 363-1]	4 nM
Cc1cc(N)c(C#N)c(-c2c(F)cc3c(N4C[C@H]5CC[C@@H](C4)N5)nc(OC[C@]4(C)CN(C)CC[C@@H]4CF)nc3c2F)c1C(F)(F)F (single isomer, unassigned) [Example 85-2]	38 nM
CN1CC[C@H](C(F)F)[C@](C)(COc2nc(N3C[C@H]4CC[C@@H](C3)N4)c3cc(C#N)c(-c4cccc5sc(N)c(C#N)c45)c(F)c3n2)C1 [Example 328, 7-(2-amino-3-cyanobenzo[b]thiophen-4-yl)-4-((1R,5S)-3,8-diazabicyclo[3.2.1]octan-3-yl)-2-(((3S,4S)-4-(difluoromethyl)-1,3-dimethylpiperidin-3-yl)methoxy)-8-fluoroquinazoline-6-carbonitrile]	45 nM
CCc1c(F)ccc2cc(O)cc(-c3c(F)cc4c(N5CC6CCC(C5)N6)nc(OC[C@]5(C)CN(C)CC[C@@H]5CF)nc4c3F)c12 [Example 99-1]	18 nM
C#Cc1c(F)ccc2cc(O)cc(-c3c(F)cc4c(N5C[C@H]6CC[C@@H](C5)N6)nc(OC[C@]5(C)CN(CC)CCC56CC6)nc4c3F)c12 [Example 95, 4-(4-((1R,5S)-3,8-diazabicyclo[3.2.1]octan-3-yl)-2-(((S)-6-ethyl-4-methyl-6-azaspiro[2.5]octan-4-yl)methoxy)-6,8-difluoroquinazolin-7-yl)-5-ethynyl-6-fluoronaphthalen-2-ol]	8 nM
